In brackets after ≈: the same amount, converted by molar mass. Where a SMILES comes first, the peptide text is derived from it. [ ]: non-standard residue; d: D form. The star is where a group is joined. Palmitoyl = CCCCCCCCCCCCCCCC(=O)*
Tests used:
[1] = test system: S. aureus NCDO 949; format: cell-based, Staphylococcus aureus; settings: NCDO 949, 24 h
Description: (§1) Antibacterial susceptibility testing was performed using a broth microdilution assay, against both Gram-negative and Gram-positive bacteria, as previously described by Kourmentza et al.[44] The target strains used were E. coli K-12, S. enterica NCTC 5188, and S. aureus NCDO 949. The test compounds were dissolved in water, filter-sterilized, and further diluted in Mueller-Hinton broth (MHB) which was used as the growth medium for the tests. 2-fold dilutions were performed, and 100 μL of each dilution was transferred to each well of 96-well plates. The final test concentration range of the compounds was 1.95–1000 μg/mL. Additionally, the 96-well plates contained wells with 200 μL of growth medium that served as sterility controls and wells filled with 100 μL of growth medium and 100 μL of inoculum that served as growth controls. The remaining wells were inoculated with 100 μL of a bacterial culture. The bacterial suspensions were prepared from overnight cultures in MHB. The bacterial density was adjusted to 0.5 McFarland (standard), and the suspensions were subsequently diluted 100 times using the growth medium. The 96-well plates were incubated at 37 °C for 24 h and the OD at 620 nm of the wells was assessed for growth. The MIC was defined as the lowest concentration of the antimicrobial agent tested that prevented any discernible growth after 24 h.
(§2) Since all the molecules are biocompatible at low concentrations, their antibacterial efficacy was examined in preliminary tests using a broth microdilution assay against both Gram-negative and Gram-positive bacteria. Here, E. coli K-12, S. enterica NCTC 5188 were cultured as Gram-negative bacteria and S. aureus NCDO 949 was used as a model Gram-positive bacterium. The lipopeptides were dissolved in water, filter-sterilized, and further diluted in Mueller-Hinton broth, which was used as the growth medium for the experiment to determine MIC values. […] E. coli was most susceptible to compounds P1 and P1D with MICs falling within the range of 15.63–31.25 μg/mL (Table 1). […] Overall, the P1 analogues have lower MIC values than those for the P2 analogues, especially for S. enterica.

[2] = test system: E. coli K-12; format: cell-based, Escherichia coli; settings: K-12, 24 h
Description: as §1, §2

[3] = test system: L929 murine fibroblast cell lines; settings: 48 h, 0.05 wt %
Description: L929 murine fibroblast cell lines (ECACC General Cell Collection) were grown in Dulbecco’s modified Eagle’s medium (DMEM) supplemented with 10% fetal bovine serum (FBS), 20 mM HEPES, and 1% GlutaMAX. The cells were maintained at pH 7.4, 37 °C, and 5% CO2 in 25 cm^2 cell culture flasks.
For the cytotoxicity assay, approximately 6000 cells per well were seeded in 96-well plates. The medium was exchanged after 24 h by adding solutions of different concentrations of the lipopeptides ranging from 0.05 to 0.0001 wt %. After 48 h of treatment, cell viability was assessed using an MTT [3-(4, 5-dimethylthiazolyl-2)-2, 5-diphenyltetrazolium bromide] assay. Here, the culture medium was removed, followed by the addition of a solution of MTT in DMEM medium at a concentration of 0.5 mg/mL. The plate was incubated for 4 h at 37 °C. Next, to dissolve the formazan crystals, dimethyl sulfoxide was added. Thereafter, using an automatic plate reader, the absorbance was measured at 560 nm. Cell survival was expressed as a percentage of viable cells in the presence of peptides compared with control cells grown in their absence. The assay was repeated three times, and the results were averaged. Statistical significance was tested using multiple Student’s t-tests.
Here, the cytotoxicity of all the lipopeptides was investigated by MTT assays on L929 murine fibroblast cell lines. […] For all the lipopeptides, the cytotoxicity results were obtained after 48 h of cell culture.

[4] = test system: S. enterica NCTC 5188; assay: Antibacterial susceptibility, broth microdilution assay (MIC); format: cell-based, Salmonella enterica; settings: S. enterica NCTC 5188, broth microdilution in Mueller-Hinton broth, 37 °C, 24 h, OD 620 nm, test range 1.95–1000 μg/mL
Description: as §1, with “24 h. […]” for “24 h.”

[5] = Critical aggregation concentration (CAC) by ANS fluorescence probe assay; format: physicochemical; settings: 2 × 10^–3 wt % ANS solution, λex = 356 nm, emission 486 nm, 25 °C, aqueous solution
Description: Fluorescence experiments were carried out using a Varian Cary Eclipse spectrofluorometer in 4 mm inner-width quartz cuvettes. Excitation and emission bandwidths of 2.5 nm were used as the experimental settings. The temperature was set at 25 °C for all of the experiments. The CAC value for all of the lipopeptides was assessed by fluorescence experiments with 8-anilo-1-naphthalenesulfonic acid (ANS). ANS is a suitable fluorophore to determine the CAC value, due to changes in local hydrophobicity.[43] For this assay, various concentrations of samples were prepared in 2 × 10^–3 wt % ANS solution. Fluorescence spectra were recorded from 400 to 670 nm with λex = 356 nm.
To determine the CAC value of individual lipopeptides, the results were plotted as I/I0 versus log(c/wt %), where I stands for the maximum fluorescence intensity of ANS containing the various concentrations of samples and I0 stands for the intensity for the control, i.e., ANS solution without lipopeptide.
To determine CAC values of these lipopeptides, fluorescence probe assays using ANS were performed.[43] Emission spectra of the four lipopeptides were collected at different concentrations after excitation at 356 nm. At higher concentrations, an emission peak at 486 nm is visible. […] The lower CAC values for P2 and P2D are due to the higher hydrophobicity of tryptophan than tyrosine.

[6] = SAXS of micelles, core-shell sphere form factor and hard sphere structure factor fit; format: physicochemical
Description: SAXS experiments were performed on beamline B21 at Diamond (Didcot, UK). The sample solutions were loaded into the 96-well plate of an EMBL BioSAXS robot and then injected via an automated sample exchanger into a quartz capillary (1.8 mm internal diameter) with the X-ray beam. The quartz capillary was enclosed in a vacuum chamber to avoid parasitic scattering. After the sample was injected into the capillary and reached the X-ray beam, the flow was stopped during SAXS data acquisition. Beamline B21 operates with a fixed camera length (3.9 m) and fixed energy (12.4 keV). The images were captured by using a PILATUS 2 M detector. Data processing was performed by using the dedicated beamline software ScÅtter.
More quantitative information about these self-assembled nanostructures was obtained from SAXS, also performed for 1 wt % aqueous solutions of the four lipopeptides. Consistent with cryo-TEM, the form factors for P1, P1D, P2, and P2D can be fitted based on the core–shell sphere structure corresponding to a hydrophobic core and peptide corona. The fit parameters listed in SI Table S1 show outer radii in the range (2.47–2.90 ± 0.4) nm, consistent with cryo-TEM. The inner core radius is 1.45–1.56 nm, which is consistent with the length of an extended C16 lipid chain plus the first hydrophobic amino acid (Y or W). […] The shell thickness may be compared to the length of a tripeptide in an extended structure (such as PPII), 3 × 0.31 nm = 0.93 nm (residue translation value taken from ref ([55])) and is in good agreement with this value for P1, P1D, and P2D. […] The form factor parameters are the same within uncertainties for the other three lipopeptides. The association number can be estimated for P1 (similar values are expected for P1D and P2D since the micelle radius and molecular volume are similar) using the volume of a micelle Vmic = 4/3π(2.52 nm)^3 = 67.0 nm^3, while the molecular volume Vmol = 0.62 nm^3 was obtained from the hydrophobicity surface/molecular volume calculation in UCSF Chimera.[56] This leads to an estimated association number p = Vmic/Vmol = (108 ± 20). […]

[7] = 1 wt% sample at native pH = 4, core-shell sphere form factor

Structure (SMILES)	MIC [1] [µg/mL]	MIC [2] [µg/mL]	lower range MIC value for E. coli as molar concentration [2] [µM]	cell viability [3] [%]	MIC [4] [µg/mL]	CAC (concentration at the breakpoint of I/I0 at 486 nm vs concentration) [5] [wt %]	Ri, micelle inner core radius [6, 7] [Å]	Ro, micelle outer radius [6, 7] [Å]	RHS, hard sphere radius ([6]; 1 wt% sample at native pH = 4, hard sphere structure factor) [Å]
CCCCCCCCCCCCCCCC(=O)N[C@@H](Cc1ccc(O)cc1)C(=O)N[C@H](CCCCN)C(=O)N[C@H](CCCCN)C(N)=O [P1D] (Palmitoyl-Tyr-[dK]-[dK]-NH2)	31.25 (≈ 46.3 µM)	15.63 to 31.25	22 to 23	44.1 ± 7.6	–	–	–	–	–
CCCCCCCCCCCCCCCC(=O)N[C@@H](Cc1ccc(O)cc1)C(=O)N[C@@H](CCCCN)C(=O)N[C@@H](CCCCN)C(N)=O [P1] (Palmitoyl-Tyr-Lys-Lys-NH2)	31.25 to 62.5	15.63 to 31.25	22 to 23	53.1 ± 5.1	–	–	–	–	–
CCCCCCCCCCCCCCCC(=O)N[C@@H](Cc1c[nH]c2ccccc12)C(=O)N[C@H](CCCCN)C(=O)N[C@H](CCCCN)C(N)=O [P2D] (Palmitoyl-Trp-[dK]-[dK]-NH2)	31.25 to 62.5	31.25 to 62.5	–	13.0 ± 1.1	62.5 (≈ 89.5 µM)	0.00257 ± 0.05	15.1	26.3	79.3
CCCCCCCCCCCCCCCC(=O)N[C@@H](Cc1c[nH]c2ccccc12)C(=O)N[C@@H](CCCCN)C(=O)N[C@@H](CCCCN)C(N)=O [P2] (Palmitoyl-Trp-Lys-Lys-NH2)	31.25 to 62.5	15.63 to 62.5	22 to 23	20.2 ± 2.8	62.5 to 250	–	–	–	–

Source: paper PMC10865344, “Self-Assembly and Antimicrobial Activity of Lipopeptides Containing Lysine-Rich Tripeptides” (Biomacromolecules, 2024)
